Results on 18 compounds are retold here after patent US20230122510A1, “CANNABINOID DERIVATIVES” (CANOPY GROWTH CORPORATION, priority 2019, published 2023).

One assay deals with T1, human CB1 receptor (Homo sapiens, UniProt P21554).
T1 construct: host or cells: CHO-K1
Description: CB1 radioligand competitive binding assay ([3H]CP 55,940 displacement). The conditions noted are these: for IC50: displacement of 0.8 nM [3H]CP 55,940, membranes of CHO-K1 cells expressing human CB1 receptor; for Selectivity CB1: fold difference between CB1 and CB2 binding, (CB1 over CB2).

The target in another assay is T2, human CB2 receptor (Homo sapiens, UniProt P34972).
T2 construct: host or cells: CHO-K1
Description: CB2 radioligand competitive binding assay ([3H]CP 55,940 displacement). The following applies: for IC50: displacement of 0.6 nM [3H]CP55,940, membranes of CHO-K1 cells expressing human CB2 receptor; for Selectivity CB2: fold difference between CB1 and CB2 binding, the receptor with higher binding affinity (CB2 over CB1). On the procedure:
Compounds of the present disclosure were tested for CB1 receptor binding affinity and for CB2 receptor binding affinity. As used herein, “binding affinity” is represented by the IC50 value, which was experimentally determined as described herein. The lower the IC50 value the higher the binding affinity. A compound of the present disclosure may be said to have “binding selectivity” if it has a higher binding affinity for one receptor compared to the other.
The membranes were prepared from CHO-K1 (Chinese hamster ovary) cells stably transfected with the human CB2 receptor (Cat. #ES-111-C; Perkin Elmer, Boston, Mass.). The cells were grown adherently and maintained in Ham's F12 medium containing 10% fetal bovine serum (FBS), penicillin, streptomycin and geneticin (G418) at 37° C. in a humid atmosphere of 5% CO2 following the manufacturer's instructions.
For membrane preparation the cells were washed with PBS and scraped off the plates in cold homogenization buffer (25 mM HEPES (pH 7.4), 2 mM EDTA) containing protease inhibitor cocktail (Sigma Cat. #P8340). The cell suspension was homogenized with a Pro-PK-01200D Polytron Homogenizer (Pro Scientific) and then centrifuged for 30 min at 120,000×g. The supernatant was discarded and the pellet was re-suspended in the homogenization buffer and stored at −80° C. until the time of use.
In this experiment, 3H radiolabeled CP 55,940, i.e. [3H]CP 55,940 (Perkin Elmer, Boston, Mass.), was used as a radioligand for the CB2 receptor to determine the binding affinity of compounds for the CB2 receptor (Scheme 6; above).
The competition binding experiments (single dose and dose-response) were performed by incubating 0.6 nM of [3H]CP55,940 (specific activity 101 Ci/mmol, Perkin Elmer) and different concentrations of compounds disclosed herein with membranes prepared as above from CHO-K1 cells expressing human CB2 receptor (1 μg of protein/well), 50 mM Tris-HCl (pH 7.4), 5 mM MgCl2, 1 mM CaCl2, and 2 mg/mL BSA.
For the single dose experiments, the compound stocks (usually 10 mM in DMSO) were diluted to working stocks in the binding buffer to give the final compound concentrations of 10 μM and 1 μM. For the dose-response experiments the test compounds were sequentially diluted to provide the desired concentration range for the […] determination. In each case the compounds were pre-incubated with the membrane for 20 min, before adding the radioligand.
After incubation with the radioligand for 60 min at 37° C., the incubation was terminated by rapid filtration of assay mixture through MultiScreen®HTS^+ 96-well filter plates (Millipore, Cat. #MSFCNXB), pre-soaked for 60 min with 50 mM Tris-HCl (pH 7.4) containing 0.33% polyethylenimine (PEI). The nonspecific binding (NSB) was determined in the presence of 10 μM unlabelled CP55,940. After drying the filter plate at 50° C. for at least 60 min, the filter-bound radioactivity was determined by scintillation spectrometry using the 1450 MicroBeta Plate Counter (Perkin Elmer, Boston, Mass.). From the dose-response experiments, the IC50 values were determined (see Table 1, CB2 IC50).
Where the test compound had about the same affinity for both receptors, this is represented by a value of 1.00 in the column for both receptors.

T2 sequence (P34972 whole entry): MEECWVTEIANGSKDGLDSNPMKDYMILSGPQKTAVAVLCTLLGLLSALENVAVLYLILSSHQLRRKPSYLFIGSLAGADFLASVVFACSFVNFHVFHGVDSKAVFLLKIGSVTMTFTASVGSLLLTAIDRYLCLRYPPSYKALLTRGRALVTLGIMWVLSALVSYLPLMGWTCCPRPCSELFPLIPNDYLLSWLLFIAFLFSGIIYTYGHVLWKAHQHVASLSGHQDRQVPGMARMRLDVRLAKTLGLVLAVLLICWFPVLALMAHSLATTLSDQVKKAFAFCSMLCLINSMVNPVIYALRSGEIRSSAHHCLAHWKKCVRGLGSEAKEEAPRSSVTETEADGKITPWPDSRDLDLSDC
T1 sequence (P21554 whole entry): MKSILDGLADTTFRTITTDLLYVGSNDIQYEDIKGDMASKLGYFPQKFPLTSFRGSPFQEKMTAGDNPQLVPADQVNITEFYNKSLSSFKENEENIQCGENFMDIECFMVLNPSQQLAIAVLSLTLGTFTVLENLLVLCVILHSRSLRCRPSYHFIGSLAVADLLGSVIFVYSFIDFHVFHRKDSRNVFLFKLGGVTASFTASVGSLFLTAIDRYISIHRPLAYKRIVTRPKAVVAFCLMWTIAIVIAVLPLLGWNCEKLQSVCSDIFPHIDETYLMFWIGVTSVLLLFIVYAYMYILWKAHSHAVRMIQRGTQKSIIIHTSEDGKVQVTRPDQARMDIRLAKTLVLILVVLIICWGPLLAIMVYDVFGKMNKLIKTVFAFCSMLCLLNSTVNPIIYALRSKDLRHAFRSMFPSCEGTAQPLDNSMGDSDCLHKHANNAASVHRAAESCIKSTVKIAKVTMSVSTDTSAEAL

Take `CCCCCc1cc(O)c(C/C=C(\C)CCC=C(C)C)c(O)c1-c1ccco1` [Compound 15, 2-(3,7-dimethylocta-2,6-dien-1-yl)-4-(furan-2-yl)-5-pentylbenzene-1,3-diol]: the IC50 on human CB1 receptor and on human CB2 receptor was 1000 to 4990 nM throughout. Besides, the “Selectivity CB2” value on human CB2 receptor came out at 2.11 fold.
Take `CCCCCc1cc(O)c(C/C=C(\C)CCC=C(C)C)c(O)c1-c1ccc2[nH]ncc2c1` [Compound 41, 2-(3,7-dimethylocta-2,6-dien-1-yl)-4-(1H-indazol-5-yl)-5-pentylbenzene-1,3-diol]: on human CB1 receptor, the IC50 is under 500 nM and the “Selectivity CB1” value worked out at 79.18 fold. Further, at human CB2 receptor, the IC50 is 500 to 990 nM.
`CCCCCc1cc(O)c(C/C=C(\C)CCC=C(C)C)c(O)c1-c1c(C)noc1C` [Compound 37, 4-(3,5-dimethylisoxazol-4-yl)-2-(3,7-dimethylocta-2,6-dien-1-yl)-5-pentylbenzene-1,3-diol] registered an IC50 at human CB1 receptor of over 5000 nM. For the same compound, at human CB2 receptor, the IC50 is 1000 to 4990 nM and the “Selectivity CB2” value was found to be 7.14 fold.
As to `CCCc1cc(O)c(C/C=C(\C)CCC=C(C)C)c(O)c1-c1cc2ccccc2o1` [Compound 44, 4-(benzofuran-2-yl)-2-(3,7-dimethylocta-2,6-dien-1-yl)-5-propylbenzene-1,3-diol], the values for the IC50 at human CB1 receptor and at human CB2 receptor were 500 to 990 nM and 1000 to 4990 nM, respectively. The “Selectivity CB1” value on human CB1 receptor stood at 1.67 fold.
Regarding `CCCCCc1cc(O)c(C/C=C(\C)CCC=C(C)C)c(O)c1-c1cncnc1` [Compound 13, 2-(3,7-dimethylocta-2,6-dien-1-yl)-5-pentyl-4-(pyrimidin-5-yl) benzene-1,3-diol], the IC50 at human CB1 receptor lay within 1000 to 4990 nM. On human CB2 receptor, the IC50 fell in the range of 1000 to 4990 nM and the “Selectivity CB2” value amounted to 1.85 fold.
`CCCCCc1cc(O)c(C/C=C(\C)CCC=C(C)C)c(O)c1-c1cn[nH]c1` [Compound 38, 2-(3,7-dimethylocta-2,6-dien-1-yl)-5-pentyl-4-(1H-pyrazol-4-yl) benzene-1,3-diol] registered an IC50 at human CB1 receptor of 500 to 990 nM. At human CB2 receptor, the IC50 lay within 500 to 990 nM and the “Selectivity CB2” value came to 1.21 fold.
For the compound `CCCCCc1cc(O)c(C/C=C(\C)CCC=C(C)C)c(O)c1-c1cc2ccccc2s1` [Compound 33, 4-(benzo[b]thiophen-2-yl)-2-(3,7-dimethylocta-2,6-dien-1-yl)-5-pentylbenzene-1,3-diol], the IC50 at human CB1 receptor was 1000 to 4990 nM; at human CB2 receptor, 500 to 990 nM. Also, the “Selectivity CB2” value on human CB2 receptor stood at 1.45 fold.
Turning to `CCCCCc1cc(O)c(C/C=C(\C)CCC=C(C)C)c(O)c1-c1cc2ccccc2o1` [Compound 32, 4-(benzofuran-2-yl)-2-(3,7-dimethylocta-2,6-dien-1-yl)-5-pentylbenzene-1,3-diol], at human CB1 receptor, the IC50 lay in the range of 500 to 990 nM and the “Selectivity CB1” value was 1.16 fold. This compound had an IC50 at human CB2 receptor of 1000 to 4990 nM.
In turn, `CCCCCc1cc(O)c(C/C=C(\C)CCC=C(C)C)c(O)c1-c1ccsc1` [Compound 17, 2-(3,7-dimethylocta-2,6-dien-1-yl)-5-pentyl-4-(thiophen-3-yl)benzene-1,3-diol] had an IC50 on human CB1 receptor of 1000 to 4990 nM. Further, at human CB2 receptor, the concentration for half-maximal inhibition (IC50) lay in the range of 500 to 990 nM and the “Selectivity CB2” value came to 2.10 fold.
For the compound `CCCCCc1cc(O)c(C/C=C(\C)CCC=C(C)C)c(O)c1-c1cnc2ccccc2c1` [Compound 42, 2-(3,7-dimethylocta-2,6-dien-1-yl)-5-pentyl-4-(quinolin-3-yl) benzene-1,3-diol], the IC50 is 500 to 990 nM at human CB1 receptor and 1000 to 4990 nM on human CB2 receptor. At human CB1 receptor, the “Selectivity CB1” value turned out to be 2.69 fold.
`CCCc1cc(O)c(C/C=C(\C)CCC=C(C)C)c(O)c1-c1ccsc1` [Compound 43, 2-(3,7-dimethylocta-2,6-dien-1-yl)-5-propyl-4-(thiophen-3-yl) benzene-1,3-diol]: the IC50 on human CB1 receptor lay within 1000 to 4990 nM. Also, on human CB2 receptor, the IC50 was in the range of 500 to 990 nM and the “Selectivity CB2” value was found to be 2.26 fold.
The corresponding values for `CCCCCc1cc(O)c(C/C=C(\C)CCC=C(C)C)c(O)c1-c1cc(C)cs1` [Compound 34, 2-(3,7-dimethylocta-2,6-dien-1-yl)-4-(4-methylthiophen-2-yl)-5-pentylbenzene-1,3-diol] are 500 to 990 nM, under 500 nM and 2.15 fold.
The corresponding values for `CCCCCc1cc(O)c(C/C=C(\C)CCC=C(C)C)c(O)c1-c1ccnn1C` [Compound 35, (E)-2-(3,7-dimethylocta-2,6-dien-1-yl)-4-(1-methyl-1H-pyrazol-5-yl)-5-pentylbenzene-1,3-diol] are 1000 to 4990 nM, 1000 to 4990 nM and 1.21 fold.
As for `CCCCCc1cc(O)c(C/C=C(\C)CCC=C(C)C)c(O)c1-c1ccc2nccnc2c1` [Compound 40, 2-(3,7-dimethylocta-2,6-dien-1-yl)-5-pentyl-4-(quinoxalin-6-yl)benzene-1,3-diol], on human CB1 receptor, the IC50 lay in the range of 500 to 990 nM and the “Selectivity CB1” value came out at 1.65 fold. Moreover, on human CB2 receptor, the IC50 lay within 1000 to 4990 nM.
`CCCCCc1cc(O)c(C/C=C(\C)CCC=C(C)C)c(O)c1-c1ccnc(C)c1` [Compound 39, 2-(3,7-dimethylocta-2,6-dien-1-yl)-4-(2-methylpyridin-4-yl)-5-pentylbenzene-1,3-diol]: the figures for the IC50 at human CB1 receptor and on human CB2 receptor were 1000 to 4990 nM and 500 to 990 nM, respectively. Further, the “Selectivity CB2” value at human CB2 receptor is given as 2.18 fold.
`CCCCCc1cc(O)c(C/C=C(\C)CCC=C(C)C)c(O)c1-c1cccc(N2CCOCC2)c1` [Compound 36, 3-(3,7-dimethylocta-2,6-dien-1-yl)-3′-morpholino-6-pentyl-[1,1′-biphenyl]-2,4-diol]: the IC50 at human CB1 receptor is under 500 nM. In addition, at human CB2 receptor, the IC50 is under 500 nM and the “Selectivity CB2” value is listed as 8.93 fold.
`CCCCCc1cc(O)c(C/C=C(\C)CCC=C(C)C)c(O)c1-c1ccncc1` [Compound 14, 2-(3,7-dimethylocta-2,6-dien-1-yl)-5-pentyl-4-(pyridin-4-yl)benzene-1,3-diol]: the IC50 was in the range of 1000 to 4990 nM at human CB1 receptor and 500 to 990 nM at human CB2 receptor. Moreover, the “Selectivity CB2” value on human CB2 receptor is listed as 2.27 fold.
The corresponding values for `CCCCCc1cc(O)c(C/C=C(\C)CCC=C(C)C)c(O)c1-c1cncs1` [Compound 18, 2-(3,7-dimethylocta-2,6-dien-1-yl)-5-pentyl-4-(thiazol-5-yl) benzene-1,3-diol] are 1000 to 4990 nM, 500 to 990 nM and 2.32 fold.
